These results are taken from article PMC8237258 (Journal of Medicinal Chemistry, 2021).

Series [1] deals with guanylate cyclase-C (human (endogenous in T84)) (UniProt P25092).
The target of a further series is GC-C receptor (Homo sapiens, UniProt P25092). Briefly: cell-based.
Series [2] can be described thus: in vitro. The following applies: simulated gi fluid, pH 1.3.
Series [3] in a line: in vitro. The following applies: pig, simulated gi fluid, pH 6.8.
The conditions of series [4]: in vivo; cited from earlier work.

“And” between values parts separate entries of the source, which are not always exact repeats. Equal values may be shown once. Where a SMILES comes first, the peptide text is derived from it. Bridges are numbered along the chain shown (N, C = ends). [ ]: non-standard residue; d: D form.

Sequence of guanylate cyclase-C (human (endogenous in T84)) (P25092 24-1073): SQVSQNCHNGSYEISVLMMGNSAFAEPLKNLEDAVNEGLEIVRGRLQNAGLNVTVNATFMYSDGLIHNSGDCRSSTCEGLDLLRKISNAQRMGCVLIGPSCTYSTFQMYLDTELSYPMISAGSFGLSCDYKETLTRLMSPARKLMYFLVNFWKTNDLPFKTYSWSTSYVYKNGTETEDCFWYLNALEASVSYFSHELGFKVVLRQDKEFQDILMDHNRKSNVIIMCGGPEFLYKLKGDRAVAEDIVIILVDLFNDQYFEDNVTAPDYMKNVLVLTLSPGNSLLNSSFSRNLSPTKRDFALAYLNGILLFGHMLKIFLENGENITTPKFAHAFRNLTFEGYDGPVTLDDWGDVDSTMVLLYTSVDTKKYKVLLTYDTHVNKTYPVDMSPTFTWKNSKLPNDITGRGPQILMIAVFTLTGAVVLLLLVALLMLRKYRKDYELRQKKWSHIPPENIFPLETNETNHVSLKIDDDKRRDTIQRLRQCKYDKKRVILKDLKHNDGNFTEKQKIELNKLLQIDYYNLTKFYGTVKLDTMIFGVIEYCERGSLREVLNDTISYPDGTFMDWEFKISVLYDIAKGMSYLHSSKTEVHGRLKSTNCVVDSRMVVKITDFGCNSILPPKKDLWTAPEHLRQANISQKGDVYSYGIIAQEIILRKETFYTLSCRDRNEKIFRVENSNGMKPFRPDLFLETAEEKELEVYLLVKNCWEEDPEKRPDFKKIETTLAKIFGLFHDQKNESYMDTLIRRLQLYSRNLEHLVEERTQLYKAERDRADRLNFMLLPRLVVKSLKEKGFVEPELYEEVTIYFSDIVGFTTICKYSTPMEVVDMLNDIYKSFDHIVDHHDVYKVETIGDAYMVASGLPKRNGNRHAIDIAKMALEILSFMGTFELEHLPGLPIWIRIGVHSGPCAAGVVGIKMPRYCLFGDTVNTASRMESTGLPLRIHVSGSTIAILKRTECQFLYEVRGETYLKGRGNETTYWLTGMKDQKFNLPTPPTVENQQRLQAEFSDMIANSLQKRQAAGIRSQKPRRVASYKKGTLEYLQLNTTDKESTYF
Sequence of GC-C receptor (P25092 24-1073 limits assumed): as the sequence (P25092 24-1073) above

With [desTyr^14]-Linaclotide-NH2 (peptide), the EC50 of cGMP accumulation in human T84 cells (cGMP HTRF assay kit) in series [1] worked out at 0.0337 µM.
As to `CC(C)[C@@H](NC(=O)[C@@H]1CSSC[C@@H]2NC(=O)[C@H](Cc3ccc(O)cc3)NC(=O)[C@H](CCC(=O)O)NC(=O)[C@@H]3CSSC[C@H](NC(=O)[C@H](C)NC(=O)[C@@H]4CCCN4C(=O)[C@H](CC(N)=O)NC(=O)[C@H](CSSC[C@H](N)C(=O)N3)NC2=O)C(=O)N[C@@H]([C@@H](C)O)C(=O)NCC(=O)N1)C(N)=O` [[D-Val^14]-Linaclotide] (H-CCEYCCNPACTGC[dV]-NH2; disulfide 1-6, 2-10, 5-13), at GC-C receptor, a half-maximal effect (EC50) was put at 0.104 ± 0.0216 µM, the EC50/EC50 linaclotide fold amounted to 28 fold and the “fold less potent than [D-Tyr^14]-Linaclotide” value worked out at 6 fold. Besides, the half-life (usually how long it takes for the measured level to halve) in “in vitro [2]” is greater than 8 h. Further, the half-life in “in vitro [3]” was greater than 8 h.
As for `C[C@@H]1NC(=O)[C@@H]2CCCN2C(=O)[C@H](CC(N)=O)NC(=O)[C@@H]2CSSC[C@H](N)C(=O)N[C@H]3CSSC[C@H](NC1=O)C(=O)N[C@@H]([C@@H](C)O)C(=O)NCC(=O)N[C@H](C(=O)N[C@@H](Cc1ccc(O)cc1)C(=O)O)CSSC[C@H](NC(=O)[C@H](Cc1ccc(O)cc1)NC(=O)[C@H](CCC(=O)O)NC3=O)C(=O)N2` [Linaclotide, reference compound] (H-CCEYCCNPACTGCY-OH; disulfide 1-6, 2-10, 5-13 (inferred)), the EC50 (commonly the concentration that produces a half-maximal response) on GC-C receptor was found to be 0.0037 ± 0.0005 µM. The half-life in the series “in vitro [2]” is greater than 8 h. The molecule further registered a half-life in the series “in vitro [3]” of 0.8 h. In series [4], the “absorption into the systemic circulation” value is “insignificant” and the “amount excreted in the feces” value is reported as 3–5%.
As for “[Sec^1,6; D-Tyr^14]-Linaclotide (peptide)”, the EC50 of cGMP accumulation in human T84 cells (cGMP HTRF assay kit) in series [1] stood at 0.005 µM.
Take `C[C@@H]1NC(=O)[C@@H]2CCCN2C(=O)[C@H](CC(N)=O)NC(=O)[C@@H]2CSSC[C@H](N)C(=O)N[C@H]3CSSC[C@H](NC1=O)C(=O)N[C@@H]([C@@H](C)O)C(=O)NCC(=O)N[C@H](C(=O)N[C@@H](Cc1ccc(O)cc1)C(N)=O)CSSC[C@H](NC(=O)[C@H](Cc1ccc(O)cc1)NC(=O)[C@H](CCC(=O)O)NC3=O)C(=O)N2` [Linaclotide-NH2] (H-CCEYCCNPACTGCY-NH2; disulfide 1-6, 2-10, 5-13): at GC-C receptor, the response was half-maximal at 0.0072 ± 0.0021 µM (EC50). Further, the half-life in the series “in vitro [2]” and in the series “in vitro [3]” was greater than 8 h throughout.
Linaclotide-NH2 (peptide) had an EC50 of cGMP accumulation in human T84 cells (cGMP HTRF assay kit) in series [1] of 0.0072 µM.
Still for that read-out and setting: then [cyclic]-Linaclotide (peptide), with 2.99 µM.
`C[C@@H]1NC(=O)[C@@H]2CCCN2C(=O)[C@H](CC(N)=O)NC(=O)[C@@H]2CSSC[C@@H]3NC(=O)[C@H](Cc4ccc(O)cc4)NC(=O)[C@@H]4CSSC[C@H](NC(=O)[C@H](Cc5ccc(O)cc5)NC(=O)[C@H](CCC(=O)O)NC(=O)[C@H](CSSC[C@H](NC1=O)C(=O)N[C@@H]([C@@H](C)O)C(=O)NCC(=O)N4)NC3=O)C(=O)N2` [[cyclic]-Linaclotide] (cyclo(ACTGCYCCEYCCNP); disulfide 2-8, 5-11, 7-12): on GC-C receptor, a half-maximal response (EC50) required 2.99 ± 0.929 µM; the EC50/EC50 linaclotide fold is 808 fold and ~800 fold. This molecule also displayed a half-life in “in vitro [2]” greater than 8 h. Besides, the half-life in the series “in vitro [3]” is greater than 8 h.
On to `C[C@@H]1NC(=O)[C@@H]2CCCN2C(=O)[C@H](CC(N)=O)NC(=O)[C@@H]2CSSC[C@H](N)C(=O)N[C@H]3CSSC[C@H](NC1=O)C(=O)N[C@@H]([C@@H](C)O)C(=O)NCC(=O)N[C@H](C(=O)N[C@H](Cc1ccc(O)cc1)C(N)=O)CSSC[C@H](NC(=O)[C@H](Cc1ccc(O)cc1)NC(=O)[C@H](CCC(=O)O)NC3=O)C(=O)N2` [[D-Tyr^14]-Linaclotide] (H-CCEYCCNPACTGC[dY]-NH2; disulfide 1-6, 2-10, 5-13), for which, on GC-C receptor, the EC50 stood at 0.0165 ± 0.0058 µM and the EC50/EC50 linaclotide fold is given as 4.5 fold. Further, the half-life in the series “in vitro [2]” was greater than 8 h. Moreover, the half-life in the series “in vitro [3]” is greater than 8 h.
In series [1], Linaclotide (peptide) gave an EC50 of cGMP accumulation in human T84 cells (cGMP HTRF assay kit) of 0.0037 µM.
Same read-out and setting: then [D-Tyr^14]-Linaclotide (peptide), with 0.0165 µM.
Take `C[C@@H]1NC(=O)[C@@H]2CCCN2C(=O)[C@H](CC(N)=O)NC(=O)[C@@H]2CSSC[C@H](N)C(=O)N[C@H]3CSSC[C@H](NC1=O)C(=O)N[C@@H]([C@@H](C)O)C(=O)NCC(=O)N[C@H](C(N)=O)CSSC[C@H](NC(=O)[C@H](Cc1ccc(O)cc1)NC(=O)[C@H](CCC(=O)O)NC3=O)C(=O)N2` [[desTyr^14]-Linaclotide-NH2] (H-CCEYCCNPACTGC-NH2; disulfide 1-6, 2-10, 5-13): at GC-C receptor, the midpoint of the response, the EC50, lay at 0.0337 ± 0.0057 µM. For the same molecule, the half-life in the series “in vitro [2]” and in “in vitro [3]” was greater than 8 h in each case.
With [D-Val^14]-Linaclotide (peptide), the EC50 of cGMP accumulation in human T84 cells (cGMP HTRF assay kit) in series [1] was determined as 0.104 µM.
